Measurements: the supplement of paper PMC10307832

Tests used:
Experiment in all cases: relative viability (nuclei count vs DMSO), 5 days (fraction); higher = more cells survive
CAP-232 = compound: C[C@H]([C@@H](C(=O)N)NC(=O)[C@@H]1CSSC[C@@H](C(=O)N[C@H](C(=O)N[C@@H](C(=O)N[C@H](C(=O)N1)CCCCN)CC2=CNC3=CC=CC=C32)CC4=CC=C(C=C4)O)NC(=O)[C@@H](CC5=CC=CC=C5)N)O [CAP-232]
Outline: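 Viability was read as treated-well nuclei divided by vehicle-well nuclei, using the median across plates. Lung cancer cell lines in 1536-well plates were kept overnight at 37 °C, pinned with five √10-spaced library-drug doses, and after 5 days were Hoechst-stained, imaged at 4× and counted in MetaXpress. Plates passed only with control CV below 25% and at least one doubling.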

CAP-232 + Trametinib = compound: C[C@H]([C@@H](C(=O)N)NC(=O)[C@@H]1CSSC[C@@H](C(=O)N[C@H](C(=O)N[C@@H](C(=O)N[C@H](C(=O)N1)CCCCN)CC2=CNC3=CC=CC=C32)CC4=CC=C(C=C4)O)NC(=O)[C@@H](CC5=CC=CC=C5)N)O [CAP-232] + CC(=O)Nc1cccc(-n2c(=O)n(C3CC3)c(=O)c3c(Nc4ccc(I)cc4F)n(C)c(=O)c(C)c32)c1 [Trametinib] (partner 0.02 µM)
Outline: (§1)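 Each reported value is a median over duplicate plates. It expresses relative viability: treated-well nuclei count divided by vehicle-well nuclei count. Lung cancer cell lines in 1536-well plates were dosed by pin tool a day after seeding, alone with one drug or with a fixed anchor-drug dose plus five library-drug doses (not always all listed) in √10 steps, and nuclei were counted after 5 days.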

CAP-232 + Palbociclib = compound: C[C@H]([C@@H](C(=O)N)NC(=O)[C@@H]1CSSC[C@@H](C(=O)N[C@H](C(=O)N[C@@H](C(=O)N[C@H](C(=O)N1)CCCCN)CC2=CNC3=CC=CC=C32)CC4=CC=C(C=C4)O)NC(=O)[C@@H](CC5=CC=CC=C5)N)O [CAP-232] + CC(=O)c1c(C)c2cnc(Nc3ccc(N4CCNCC4)cn3)nc2n(C2CCCC2)c1=O [Palbociclib] (partner 0.5 µM)
Outline: as §1

CAP-232 + OSI-027 = compound: C[C@H]([C@@H](C(=O)N)NC(=O)[C@@H]1CSSC[C@@H](C(=O)N[C@H](C(=O)N[C@@H](C(=O)N[C@H](C(=O)N1)CCCCN)CC2=CNC3=CC=CC=C32)CC4=CC=C(C=C4)O)NC(=O)[C@@H](CC5=CC=CC=C5)N)O [CAP-232] + COc1cccc2cc(-c3nc([C@H]4CC[C@H](C(=O)O)CC4)n4ncnc(N)c34)[nH]c12 [OSI-027] (partner 0.5 µM)
Outline: as §1

CAP-232 + Tozasertib = compound: C[C@H]([C@@H](C(=O)N)NC(=O)[C@@H]1CSSC[C@@H](C(=O)N[C@H](C(=O)N[C@@H](C(=O)N[C@H](C(=O)N1)CCCCN)CC2=CNC3=CC=CC=C32)CC4=CC=C(C=C4)O)NC(=O)[C@@H](CC5=CC=CC=C5)N)O [CAP-232] + Cc1cc(Nc2cc(N3CCN(C)CC3)nc(Sc3ccc(NC(=O)C4CC4)cc3)n2)n[nH]1 [Tozasertib] (partner 0.1 µM)
Outline: as §1

CAP-232 + AZD7762 = compound: C[C@H]([C@@H](C(=O)N)NC(=O)[C@@H]1CSSC[C@@H](C(=O)N[C@H](C(=O)N[C@@H](C(=O)N[C@H](C(=O)N1)CCCCN)CC2=CNC3=CC=CC=C32)CC4=CC=C(C=C4)O)NC(=O)[C@@H](CC5=CC=CC=C5)N)O [CAP-232] + NC(=O)Nc1cc(-c2cccc(F)c2)sc1C(=O)N[C@H]1CCCNC1 [AZD7762] (partner 0.2 µM)
Outline: as §1

CAP-232 + Pemetrexed = compound: C[C@H]([C@@H](C(=O)N)NC(=O)[C@@H]1CSSC[C@@H](C(=O)N[C@H](C(=O)N[C@@H](C(=O)N[C@H](C(=O)N1)CCCCN)CC2=CNC3=CC=CC=C32)CC4=CC=C(C=C4)O)NC(=O)[C@@H](CC5=CC=CC=C5)N)O [CAP-232] + Nc1nc2[nH]cc(CCc3ccc(C(=O)N[C@@H](CCC(=O)O)C(=O)O)cc3)c2c(=O)[nH]1 [Pemetrexed] (partner 0.2 µM)
Outline: as §1

CAP-232 + Decitabine = compound: C[C@H]([C@@H](C(=O)N)NC(=O)[C@@H]1CSSC[C@@H](C(=O)N[C@H](C(=O)N[C@@H](C(=O)N[C@H](C(=O)N1)CCCCN)CC2=CNC3=CC=CC=C32)CC4=CC=C(C=C4)O)NC(=O)[C@@H](CC5=CC=CC=C5)N)O [CAP-232] + Nc1ncn([C@H]2C[C@H](O)[C@@H](CO)O2)c(=O)n1 [Decitabine] (partner 2 µM)
Outline: as §1

CAP-232 + Vorinostat = compound: C[C@H]([C@@H](C(=O)N)NC(=O)[C@@H]1CSSC[C@@H](C(=O)N[C@H](C(=O)N[C@@H](C(=O)N[C@H](C(=O)N1)CCCCN)CC2=CNC3=CC=CC=C32)CC4=CC=C(C=C4)O)NC(=O)[C@@H](CC5=CC=CC=C5)N)O [CAP-232] + O=C(CCCCCCC(=O)Nc1ccccc1)NO [Vorinostat] (partner 1 µM)
Outline: as §1

CAP-232 + Olaparib = compound: C[C@H]([C@@H](C(=O)N)NC(=O)[C@@H]1CSSC[C@@H](C(=O)N[C@H](C(=O)N[C@@H](C(=O)N[C@H](C(=O)N1)CCCCN)CC2=CNC3=CC=CC=C32)CC4=CC=C(C=C4)O)NC(=O)[C@@H](CC5=CC=CC=C5)N)O [CAP-232] + O=C(c1cc(Cc2n[nH]c(=O)c3ccccc23)ccc1F)N1CCN(C(=O)C2CC2)CC1 [Olaparib] (partner 8 µM)
Outline: as §1

Cell Line: NCI-H1648
- relative viability (CAP-232; 0.4 µM): 0.984
- relative viability (CAP-232; 1.265 µM): 0.761
- relative viability (CAP-232; 4 µM): 0.914
- relative viability (CAP-232; 12.65 µM): 0.885
- relative viability (CAP-232 + Trametinib; first compound 0.4 µM): 0.358
- relative viability (CAP-232 + Trametinib; first compound 4 µM): 0.314
- relative viability (CAP-232 + Trametinib; first compound 12.65 µM): 0.472
- relative viability (CAP-232 + Palbociclib; first compound 0.4 µM): 0.27
- relative viability (CAP-232 + Palbociclib; first compound 4 µM): 0.293
- relative viability (CAP-232 + Palbociclib; first compound 12.65 µM): 0.252
- relative viability (CAP-232 + OSI-027; first compound 0.4 µM): 0.238
- relative viability (CAP-232 + OSI-027; first compound 1.265 µM): 0.241
- relative viability (CAP-232 + OSI-027; first compound 4 µM): 0.265
- relative viability (CAP-232 + OSI-027; first compound 12.65 µM): 0.216
- relative viability (CAP-232 + Tozasertib; first compound 0.4 µM): 0.35
- relative viability (CAP-232 + Tozasertib; first compound 1.265 µM): 0.594
- relative viability (CAP-232 + Tozasertib; first compound 4 µM): 0.441
- relative viability (CAP-232 + Tozasertib; first compound 12.65 µM): 0.4
- relative viability (CAP-232 + AZD7762; first compound 0.4 µM): 0.618
- relative viability (CAP-232 + AZD7762; first compound 4 µM): 0.77
- relative viability (CAP-232 + AZD7762; first compound 12.65 µM): 0.532
- relative viability (CAP-232 + Pemetrexed; first compound 0.4 µM): 1.05
- relative viability (CAP-232 + Pemetrexed; first compound 4 µM): 0.92
- relative viability (CAP-232 + Pemetrexed; first compound 12.65 µM): 0.776
- relative viability (CAP-232 + Decitabine; first compound 0.4 µM): 0.524
- relative viability (CAP-232 + Decitabine; first compound 4 µM): 0.565
- relative viability (CAP-232 + Decitabine; first compound 12.65 µM): 0.466
- relative viability (CAP-232 + Vorinostat; first compound 0.4 µM): 0.292
- relative viability (CAP-232 + Vorinostat; first compound 4 µM): 0.453
- relative viability (CAP-232 + Vorinostat; first compound 12.65 µM): 0.411
- relative viability (CAP-232 + Olaparib; first compound 0.4 µM): 0.698
- relative viability (CAP-232 + Olaparib; first compound 4 µM): 0.664
- relative viability (CAP-232 + Olaparib; first compound 12.65 µM): 0.644
